The Kinase Knowledgebase extract (Sharma et al. 2016)

Biological target: EGFR (human) (UniProt P00533)
Settings: mda-mb-231

Sequence of EGFR (human) (P00533 whole entry, looked up): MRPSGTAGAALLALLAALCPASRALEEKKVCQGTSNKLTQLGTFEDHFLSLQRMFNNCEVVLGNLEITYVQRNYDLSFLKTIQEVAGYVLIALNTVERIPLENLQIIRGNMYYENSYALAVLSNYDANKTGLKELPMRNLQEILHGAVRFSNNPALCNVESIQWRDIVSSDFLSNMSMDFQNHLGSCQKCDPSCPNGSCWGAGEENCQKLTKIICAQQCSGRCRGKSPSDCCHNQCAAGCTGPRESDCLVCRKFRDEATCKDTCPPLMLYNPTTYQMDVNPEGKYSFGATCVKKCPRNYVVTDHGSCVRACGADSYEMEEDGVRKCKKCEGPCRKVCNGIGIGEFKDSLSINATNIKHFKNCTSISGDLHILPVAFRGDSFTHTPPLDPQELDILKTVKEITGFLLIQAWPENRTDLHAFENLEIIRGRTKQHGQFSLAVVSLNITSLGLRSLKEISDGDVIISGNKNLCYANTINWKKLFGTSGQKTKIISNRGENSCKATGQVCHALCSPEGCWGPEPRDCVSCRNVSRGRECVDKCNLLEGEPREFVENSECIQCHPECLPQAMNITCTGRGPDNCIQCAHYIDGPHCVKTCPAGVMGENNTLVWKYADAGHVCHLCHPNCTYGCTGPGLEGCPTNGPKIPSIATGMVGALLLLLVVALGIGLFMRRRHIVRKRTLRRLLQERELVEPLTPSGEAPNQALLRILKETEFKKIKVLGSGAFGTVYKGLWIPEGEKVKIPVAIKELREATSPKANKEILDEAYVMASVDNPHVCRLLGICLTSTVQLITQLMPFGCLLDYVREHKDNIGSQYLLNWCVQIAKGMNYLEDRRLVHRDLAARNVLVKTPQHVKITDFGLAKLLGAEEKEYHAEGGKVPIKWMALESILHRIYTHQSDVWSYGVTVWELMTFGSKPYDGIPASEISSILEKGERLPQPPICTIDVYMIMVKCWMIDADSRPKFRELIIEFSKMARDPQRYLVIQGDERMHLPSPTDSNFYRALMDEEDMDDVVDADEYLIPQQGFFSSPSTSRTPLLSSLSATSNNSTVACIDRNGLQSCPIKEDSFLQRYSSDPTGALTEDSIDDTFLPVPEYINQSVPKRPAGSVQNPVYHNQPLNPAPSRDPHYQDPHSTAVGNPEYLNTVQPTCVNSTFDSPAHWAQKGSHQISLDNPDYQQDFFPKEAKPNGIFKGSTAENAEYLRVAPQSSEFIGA

Row | SMILES | IC50 [µM]
1 | C/C(O)=C(/C#N)C(=O)Nc1ccc(OC(F)(F)F)cc1 | 28.4
2 | Cc1oncc1C(=O)Nc1ccc(C(F)(F)F)cc1 | 97
